In PMC11373624, “Development and preclinical characterization of a novel radiotheranostic EphA2-targeting bicyclic peptide” (Theranostics, 2024):
Numbered stars: 1 amine (or outer) side, 2 acyl side, 3 side chain; on linkers, the order of the positions; unused ones are H or OH. Bridge positions count the residues as written; N and C are the ends. Square brackets hold non-standard residues; d marks the D form. Peptide text beside a SMILES is read from it. * marks the point of attachment. DOTA = O=C(O)CN1CCN(CC(=O)O)CCN(CC(=O)*)CCN(CC(=O)O)CC1; TATA = O=C(CC[*:1])N1CN(C(=O)CC[*:2])CN(C(=O)CC[*:3])C1; Hyp = O=C(O)[C@@H]1C[C@@H](O)CN1; hArg = N=C(N)NCCCC[C@H](N)C(=O)O; Cba = N[C@@H](CC1CCC1)C(=O)O; βAla = NCCC(=O)O; Sar = CNCC(=O)O

Experiments:
Human EphA7 = target: T1, Human EphA7 (Homo sapiens, UniProt Q15375); assay: SPR homologue panel, EphA7; conditions: human EphA7, n=1; read-out: KD, no binding up to
T1 construct: purchased R&D Systems 6756-A7
T1 sequence (Q15375 28-998): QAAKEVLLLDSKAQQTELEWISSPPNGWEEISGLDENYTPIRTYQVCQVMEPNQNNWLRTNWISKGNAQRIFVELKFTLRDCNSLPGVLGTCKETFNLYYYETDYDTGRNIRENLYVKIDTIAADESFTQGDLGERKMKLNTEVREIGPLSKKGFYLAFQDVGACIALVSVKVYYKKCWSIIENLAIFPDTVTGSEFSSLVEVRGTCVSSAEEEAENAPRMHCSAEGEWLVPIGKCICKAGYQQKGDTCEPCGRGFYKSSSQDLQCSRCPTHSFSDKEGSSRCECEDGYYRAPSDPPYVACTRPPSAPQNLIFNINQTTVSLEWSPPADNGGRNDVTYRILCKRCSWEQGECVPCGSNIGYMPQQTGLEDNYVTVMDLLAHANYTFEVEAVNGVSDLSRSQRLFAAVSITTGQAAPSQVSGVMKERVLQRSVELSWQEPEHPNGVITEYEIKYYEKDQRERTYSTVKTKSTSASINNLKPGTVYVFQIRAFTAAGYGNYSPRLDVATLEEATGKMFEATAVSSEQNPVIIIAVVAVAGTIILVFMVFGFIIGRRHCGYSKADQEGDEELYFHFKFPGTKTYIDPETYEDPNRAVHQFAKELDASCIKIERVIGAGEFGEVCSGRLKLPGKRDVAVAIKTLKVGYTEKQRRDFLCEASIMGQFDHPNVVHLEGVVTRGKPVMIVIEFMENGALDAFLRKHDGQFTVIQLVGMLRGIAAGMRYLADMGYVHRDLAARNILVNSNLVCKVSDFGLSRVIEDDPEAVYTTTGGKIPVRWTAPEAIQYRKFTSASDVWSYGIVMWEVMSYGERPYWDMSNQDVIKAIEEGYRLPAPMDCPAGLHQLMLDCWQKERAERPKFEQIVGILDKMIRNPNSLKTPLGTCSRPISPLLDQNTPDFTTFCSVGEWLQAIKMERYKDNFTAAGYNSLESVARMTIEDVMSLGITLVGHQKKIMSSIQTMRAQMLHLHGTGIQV
Protocol: (§1) The commercial source details of the recombinant proteins used in SPR were as follows: Human proteins: EphA1 (15789-H02H, Sino Biological), EphA3 (644-A3, R&D Systems), EphA6 (5606-A6, R&D Systems), EphA7 (6756-A7, R&D Systems). Mouse proteins: Mouse EphA2 was purchased from R&D Systems (Product number 639-A2). Mouse EphA2-Fc was resuspended as per manufacturer's recommendations and material was passed through a SuperdexS200 column to remove aggregates.
(§2) SPR experiments were performed on a Biacore 8K+ (Cytiva Life Sciences, USA) instrument, with methods matched for both human and mouse EphA2 protein. Protein was captured on to a Cytiva NTA sensor chip (Cytiva Life Sciences), via the expressed His-tag; this was followed by primary amine coupling chemistry to covalently immobilize the protein to the chip at 25°C. Initially the surface was injected with 0.5 mM NiCl2 for 2 minutes, followed by activation of the carboxymethyl dextran surface for 7 minutes using an injection of a 1:1 ratio of 0.4 M 1-ethyl-3-(3-dimethylaminopropyl) carbodiimide hydrochloride (EDC)/0.1 M N-hydroxy succinimide (NHS) at a flow rate of 10 µL/min.
(§3) Peptide was prepared in PBS/0.05% Tween 20 with a final DMSO concentration of 0.5%. The top peptide concentration was 100 or 500 nM and 5 further 3-fold dilutions. […]

in vitro = in vitro ADME; conditions: plasma
Protocol: To determine binding to plasma proteins, BCY18469 was labeled with ^68Ga (apparent molar activity 1 GBq/µmol). Thereafter, 10 µL of the labeling mixture were added to 100 µL of mouse or human plasma (mouse: BioIVT, United Kingdom, human: Sigma Aldrich, Germany). The mixture was left for 15 min at room temperature. Afterwards, the plasma was loaded into an ultrafiltration device (Amicon Ultra 0.5ml - 30 kDa, Merck, Germany) and centrifuged at 14,000 rpm for 30 min at r.t. The filtrate and the membrane were measured in a gamma counter (Wizard2, Perkin Elmer, Germany). The amount of plasma-bound compound was calculated based on the counts in the […] relative to the total counts (filtrate + membrane).

Human EphA3 = target: T2, Human EphA3 (Homo sapiens, UniProt P29320); assay: SPR homologue panel, EphA3; conditions: human EphA3, n=1; read-out: KD, no binding up to
T2 construct: purchased R&D Systems 644-A3
T2 sequence (P29320 with tags, fused parts or gaps limits assumed): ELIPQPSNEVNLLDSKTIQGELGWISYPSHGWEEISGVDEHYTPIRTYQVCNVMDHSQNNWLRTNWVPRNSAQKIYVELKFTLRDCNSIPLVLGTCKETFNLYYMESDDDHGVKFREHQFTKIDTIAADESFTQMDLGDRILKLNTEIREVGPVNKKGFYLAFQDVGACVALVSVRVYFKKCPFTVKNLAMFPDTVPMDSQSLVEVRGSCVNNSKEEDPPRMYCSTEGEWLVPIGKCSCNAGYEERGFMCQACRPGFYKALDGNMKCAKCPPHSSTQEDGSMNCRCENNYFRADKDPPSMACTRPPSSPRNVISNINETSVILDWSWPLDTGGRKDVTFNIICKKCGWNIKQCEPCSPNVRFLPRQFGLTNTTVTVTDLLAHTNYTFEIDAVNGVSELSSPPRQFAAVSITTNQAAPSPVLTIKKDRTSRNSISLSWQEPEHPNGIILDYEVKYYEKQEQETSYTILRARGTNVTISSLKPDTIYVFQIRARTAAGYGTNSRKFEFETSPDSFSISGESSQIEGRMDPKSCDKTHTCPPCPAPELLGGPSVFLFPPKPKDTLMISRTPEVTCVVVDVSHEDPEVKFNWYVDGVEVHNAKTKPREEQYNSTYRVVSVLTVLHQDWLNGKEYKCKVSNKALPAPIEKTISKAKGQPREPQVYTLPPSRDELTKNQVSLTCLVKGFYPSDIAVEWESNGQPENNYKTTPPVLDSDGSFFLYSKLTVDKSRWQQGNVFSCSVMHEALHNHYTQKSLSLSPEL
Protocol: as §1, §2, §3

Human EphA5 = Human EphA5 (Homo sapiens, UniProt P54756); assay: SPR homologue panel, EphA5; conditions: human EphA5, n=1; read-out: KD, no binding up to
Human EphA5, sequence (P54756 25-1037): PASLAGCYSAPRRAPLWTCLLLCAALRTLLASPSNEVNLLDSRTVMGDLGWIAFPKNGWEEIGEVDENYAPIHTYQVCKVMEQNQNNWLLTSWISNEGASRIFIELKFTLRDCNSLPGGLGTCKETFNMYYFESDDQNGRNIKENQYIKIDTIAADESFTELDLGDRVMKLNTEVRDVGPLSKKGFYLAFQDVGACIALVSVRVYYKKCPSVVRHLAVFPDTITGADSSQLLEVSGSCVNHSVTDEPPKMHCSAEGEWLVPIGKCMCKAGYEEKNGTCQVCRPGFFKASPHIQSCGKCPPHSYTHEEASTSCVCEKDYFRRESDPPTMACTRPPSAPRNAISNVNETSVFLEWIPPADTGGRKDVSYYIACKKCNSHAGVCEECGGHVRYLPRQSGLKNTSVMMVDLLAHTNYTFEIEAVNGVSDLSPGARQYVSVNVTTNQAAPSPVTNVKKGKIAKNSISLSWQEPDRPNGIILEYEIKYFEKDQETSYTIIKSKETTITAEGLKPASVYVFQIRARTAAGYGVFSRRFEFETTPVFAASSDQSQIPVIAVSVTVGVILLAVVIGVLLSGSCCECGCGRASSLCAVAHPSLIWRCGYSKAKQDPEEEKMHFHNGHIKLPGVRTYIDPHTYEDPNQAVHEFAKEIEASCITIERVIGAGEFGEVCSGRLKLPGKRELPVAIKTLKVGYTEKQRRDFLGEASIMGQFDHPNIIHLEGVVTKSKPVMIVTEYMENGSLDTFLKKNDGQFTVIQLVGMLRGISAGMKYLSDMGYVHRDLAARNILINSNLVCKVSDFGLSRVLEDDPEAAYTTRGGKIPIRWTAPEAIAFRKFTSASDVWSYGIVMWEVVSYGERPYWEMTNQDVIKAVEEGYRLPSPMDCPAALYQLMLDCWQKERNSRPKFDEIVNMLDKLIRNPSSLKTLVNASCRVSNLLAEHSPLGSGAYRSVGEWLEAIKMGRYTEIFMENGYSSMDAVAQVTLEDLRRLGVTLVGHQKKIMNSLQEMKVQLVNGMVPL

[1] = male, CD-1 (ICR), mouse, in vivo, iv, 1 mg/kg
Protocol: (§4) In vivo pharmacokinetic studies were conducted in male CD-1 (ICR) mice, 7-9 weeks of age. […] Serial venous blood samples were taken at 5 min, 15 min, 30 min, 45 min, 1 h, 2 h and 4 h post injection. Samples were immediately transferred into low-binding microcentrifuge tubes containing 2 μL K2-EDTA (0.5 M) as anti-coagulant and kept on ice until processed by centrifugation at 4°C, 3200 g for 10 min. The resulting plasma was transferred into low-binding tubes and the protein precipitated by addition of methanol containing 0.5% Triton X-100 and internal standards (100 ng/mL each of labetalol, tolbutamide, verapamil, dexamethasone, glyburide and celecoxib). Samples were centrifuged at 4°C, 12000 g for 15 min and the supernatant removed, frozen over dry ice and stored at -70°C until LC-MS/MS analysis (Supplementary Materials - Methods). A calibration curve and quality control samples were prepared in the same matrix. Pharmacokinetic parameters were derived from noncompartmental analysis using the intravenous-noncompartmental model 201 (IV bolus input) in Phoenix WinNonlin version 8.3.5 (Certara, USA).

Human EphA6 = target: T3, Human EphA6 (Homo sapiens, UniProt Q9UF33); assay: SPR homologue panel, EphA6; conditions: human EphA6, n=1; read-out: KD, no binding up to
T3 construct: purchased R&D Systems 5606-A6
T3 sequence (Q9UF33 23-1036): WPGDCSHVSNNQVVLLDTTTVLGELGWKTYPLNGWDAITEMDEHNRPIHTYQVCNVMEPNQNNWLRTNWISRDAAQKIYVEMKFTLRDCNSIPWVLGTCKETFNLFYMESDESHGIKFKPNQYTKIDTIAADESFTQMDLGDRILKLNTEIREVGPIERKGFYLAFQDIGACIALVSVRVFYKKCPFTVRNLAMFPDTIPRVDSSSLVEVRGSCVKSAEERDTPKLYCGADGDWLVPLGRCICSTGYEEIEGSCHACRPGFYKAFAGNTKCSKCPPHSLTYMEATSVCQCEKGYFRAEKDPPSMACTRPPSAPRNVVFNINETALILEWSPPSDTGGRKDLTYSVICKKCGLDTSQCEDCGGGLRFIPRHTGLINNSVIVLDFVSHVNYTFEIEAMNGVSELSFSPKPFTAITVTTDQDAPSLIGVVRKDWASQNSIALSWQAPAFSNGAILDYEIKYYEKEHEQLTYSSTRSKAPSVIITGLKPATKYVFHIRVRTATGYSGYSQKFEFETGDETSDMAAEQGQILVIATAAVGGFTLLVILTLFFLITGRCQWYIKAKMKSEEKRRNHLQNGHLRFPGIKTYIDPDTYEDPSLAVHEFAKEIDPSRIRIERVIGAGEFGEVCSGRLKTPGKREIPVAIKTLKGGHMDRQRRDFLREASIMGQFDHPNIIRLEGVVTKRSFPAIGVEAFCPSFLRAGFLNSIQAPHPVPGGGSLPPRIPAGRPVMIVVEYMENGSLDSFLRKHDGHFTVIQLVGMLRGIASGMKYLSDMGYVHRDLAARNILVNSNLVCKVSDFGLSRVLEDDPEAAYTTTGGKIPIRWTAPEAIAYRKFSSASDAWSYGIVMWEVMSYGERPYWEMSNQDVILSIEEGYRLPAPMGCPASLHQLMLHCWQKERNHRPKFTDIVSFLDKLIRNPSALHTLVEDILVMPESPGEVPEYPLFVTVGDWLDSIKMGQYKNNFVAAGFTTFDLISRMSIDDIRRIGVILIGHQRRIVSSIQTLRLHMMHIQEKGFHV
Protocol: as §1, §2, §3

Mouse EphA2 = target: T4, Mouse EphA2 (Mus musculus, UniProt Q03145); assay: SPR binding to mouse EphA2
T4 construct: Fc; purchased R&D Systems 639-A2
T4 sequence (Q03145 with tags, fused parts or gaps limits assumed): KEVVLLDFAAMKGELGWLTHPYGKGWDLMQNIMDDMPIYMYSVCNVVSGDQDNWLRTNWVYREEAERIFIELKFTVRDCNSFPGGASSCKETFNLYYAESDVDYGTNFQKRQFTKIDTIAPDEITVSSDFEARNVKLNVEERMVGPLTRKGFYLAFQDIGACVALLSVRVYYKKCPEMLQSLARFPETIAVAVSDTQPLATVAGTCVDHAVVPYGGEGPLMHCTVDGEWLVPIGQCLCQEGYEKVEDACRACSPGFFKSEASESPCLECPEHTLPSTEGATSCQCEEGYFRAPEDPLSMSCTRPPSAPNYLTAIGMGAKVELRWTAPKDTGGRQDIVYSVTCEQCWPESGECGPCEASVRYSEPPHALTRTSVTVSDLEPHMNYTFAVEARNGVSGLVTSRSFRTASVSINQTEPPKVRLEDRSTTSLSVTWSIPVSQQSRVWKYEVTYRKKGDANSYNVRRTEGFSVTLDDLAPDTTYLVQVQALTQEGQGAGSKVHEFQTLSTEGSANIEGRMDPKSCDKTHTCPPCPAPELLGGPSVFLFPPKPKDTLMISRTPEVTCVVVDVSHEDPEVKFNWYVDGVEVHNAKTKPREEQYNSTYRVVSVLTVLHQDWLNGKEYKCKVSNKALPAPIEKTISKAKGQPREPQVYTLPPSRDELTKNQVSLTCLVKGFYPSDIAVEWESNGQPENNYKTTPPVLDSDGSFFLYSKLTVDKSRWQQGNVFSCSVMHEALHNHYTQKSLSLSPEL
Protocol: as §1, §2
Human EphA2 protein was captured to the Ni-NTA surface to a level of 200-300 RU and Mouse EphA2 to 500-800 RU; the residual activated groups were then blocked with a 7 minute injection of 1 M ethanolamine (pH 8.5):HBS-N (1:1). […]

in vivo = conditions: male, CD-1 (ICR), mouse, iv, 1 mg/kg
Protocol: as §4

Kd (Human EphA7): > 5 µM
fraction unbound at 15 min (in vitro; human, Plasma protein binding (% bound peptide)): 0.567
fraction unbound at 15 min (in vitro; mouse): 0.489
Kd (Human EphA3): > 5 µM
Kd (Human EphA5): > 5 µM
CLp [1]: 24 mL/min/kg
Kd (Human EphA6): > 5 µM
Kd (Mouse EphA2; mouse EphA2, 25°C): 0.00382 ± 0.00056 µM
kon (Mouse EphA2; mouse EphA2, n=2, read-out: ka): 419000 M⁻¹ s⁻¹
AUC(0-inf) (in vivo): 701 ng·h/mL
AUC(0-t) (in vivo): 700 ng·h/mL
Cmax (in vivo): 3320 ng/mL
Vd (in vivo): 0.39 L/kg
half-life (in vivo): 14.4 min
clearance (in vivo; CLp): 23.9 mL/min/kg
SMILES: CC(C)C[C@@H]1NC(=O)[C@@H]2CSCCC(=O)N3CN(CN(C3)C(=O)CCSC[C@H](NC(=O)[C@H](CC(=O)O)NC(=O)[C@H](CCCCNC(=N)N)NC(=O)[C@H](C)NC(=O)CN(C)C(=O)CN(C)C(=O)CN(C)C(=O)CN(C)C(=O)CN(C)C(=O)CN(C)C(=O)CN(C)C(=O)CN(C)C(=O)CN(C)C(=O)CN(C)C(=O)CCNC(=O)CN3CCN(CC(=O)O)CCN(CC(=O)O)CCN(CC(=O)O)CC3)C(=O)N3C[C@H](O)C[C@H]3C(=O)N[C@@H](CC3CCC3)C(=O)N[C@@H](C(C)C)C(=O)N[C@@H](CC(N)=O)C(=O)N3CCC[C@H]3C(=O)N[C@@H](CC(C)C)C(=O)N2)C(=O)CCSC[C@@H](C(N)=O)NC(=O)[C@H](CCCCNC(=N)N)NC(=O)[C@H](Cc2c[nH]c3ccccc23)NC(=O)[C@@H](CC(=O)O)NC(=O)[C@@H]2CCCN2C(=O)[C@H](Cc2c[nH]cn2)NC1=O [BCY18469, [-DOTA]-[B-Ala]-[Sar10]-Ala-[HArg]-Asp-Cys-[HyP]-[Cba]-Val-Asn-Pro-Leu-Cys-Leu-His-Pro-[dAsp]-Trp-[HArg]-Cys-CONH2] ({DOTA-βAla}-[Sar][Sar][Sar][Sar][Sar][Sar][Sar][Sar][Sar][Sar]A[hArg]DC[Hyp][Cba]VNPLCLHP[dD]W[hArg]C-NH2; linker 14-21-28 via TATA)
